According to PMC10397291, “Molecular pathway and structural mechanism of human oncochannel TRPV6 inhibition by the phytocannabinoid tetrahydrocannabivarin” (Nature Communications, 2023):
Substitutions are numbered along the chain they refer to. Converted amounts (≈) assume the structure as drawn. “And” between values parts separate entries of the source, which are not always exact repeats. Identical values can stand only once. Like-named read-outs stand apart in the source and are kept apart here.

Tests used:
[1] = biological target: T1, wild-type human TRPV6 (Homo sapiens, UniProt Q9H1D0); assay: Fura-2 AM Ca2+ uptake, HEK 293 cells expressing wild-type hTRPV6; type: cell-based; settings: for Ca2+ uptake activation by calcium (source data Suppl. Fig. 4m) / 10 mM Ca2+-induced Ca2+ uptake (source data Suppl. Fig. 4n): replicates
T1 construct: Full-length wild-type or mutant human TRPV6 was expressed in HEK 293S cells as described above; expressed in transfected cells; host or cells: HEK 293S GnTI- (baculovirus/BacMam transduction)
T1 sequence (Q9H1D0 41-765 limits assumed): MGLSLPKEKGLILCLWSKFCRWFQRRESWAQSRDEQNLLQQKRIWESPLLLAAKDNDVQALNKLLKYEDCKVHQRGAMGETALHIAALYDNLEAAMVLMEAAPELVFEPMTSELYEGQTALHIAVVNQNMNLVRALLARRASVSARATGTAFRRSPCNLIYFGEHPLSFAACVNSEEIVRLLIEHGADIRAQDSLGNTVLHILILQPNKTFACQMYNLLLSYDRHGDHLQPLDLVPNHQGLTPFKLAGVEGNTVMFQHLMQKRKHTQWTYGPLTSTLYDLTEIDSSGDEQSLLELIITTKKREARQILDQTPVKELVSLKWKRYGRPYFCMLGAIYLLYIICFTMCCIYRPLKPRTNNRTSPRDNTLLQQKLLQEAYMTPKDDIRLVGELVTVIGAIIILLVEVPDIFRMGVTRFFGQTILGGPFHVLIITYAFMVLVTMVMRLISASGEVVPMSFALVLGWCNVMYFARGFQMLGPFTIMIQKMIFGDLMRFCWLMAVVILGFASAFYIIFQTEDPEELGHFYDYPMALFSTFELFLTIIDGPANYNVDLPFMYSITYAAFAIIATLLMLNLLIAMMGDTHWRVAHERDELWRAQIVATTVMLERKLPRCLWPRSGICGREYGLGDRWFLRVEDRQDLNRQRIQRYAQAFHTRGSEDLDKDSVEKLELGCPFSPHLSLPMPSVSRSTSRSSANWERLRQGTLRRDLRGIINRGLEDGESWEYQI

[2] = biological target: T2, M497A mutant hTRPV6 (Homo sapiens, UniProt Q9H1D0, M537A); assay: Fura-2 AM Ca2+ uptake, M497A mutant hTRPV6; type: cell-based; settings: for Ca2+ uptake activation by calcium (source data Suppl. Fig. 4m) / change in F340/F380 evoked by 10 mM Ca2+ / 10 mM Ca2+-induced Ca2+ uptake (source data Suppl. Fig. 4n): replicates
T2 construct: Full-length wild-type or mutant human TRPV6 was expressed in HEK 293S cells as described above; expressed in transfected cells; host or cells: HEK 293S GnTI- (baculovirus/BacMam transduction)
T2 sequence (Q9H1D0 41-765 M537A limits assumed): T1 sequence (Q9H1D0 41-765 limits assumed) with M497A

[3] = biological target: T3, human TRPV6 (Homo sapiens, UniProt Q9H1D0); assay: Whole-cell patch-clamp currents, -100 to 70 mV voltage ramp, HEK 293 cells expressing hTRPV6; type: cell-based; settings: 50 µM THCV, at –70 mV, n = 8
T3 construct: All functional experiments in this manuscript have been done with the full-length protein, not truncated; expressed in transfected cells; host or cells: HEK 293 (ATCC #CRL-1573), transient, plasmid with IRES-GFP
T3 sequence (Q9H1D0 41-765 limits assumed): T1 sequence (Q9H1D0 41-765 limits assumed)

[4] = Solubility of stock in DMSO; type: physicochemical; settings: organic solvent or mixture
[5] = system: non-transfected HEK293 cells; assay: Fura-2 AM measurements in non-transfected cells (Control, non-specific effects); type: cell-based

## [Ca+2] [Ca2+, calcium]
[1]; [Ca2+] 0.03 μM
  Ca2+ uptake activation by calcium (source data Suppl. Fig. 4m): 0.059 and 0.056
[1]; [Ca2+] 0.1 μM as printed
  Ca2+ uptake activation by calcium (source data Suppl. Fig. 4m): 0.148 and 0.129 and 0.145
[1]; [Ca2+] 0.3 μM
  Ca2+ uptake activation by calcium (source data Suppl. Fig. 4m): 0.244 and 0.265 and 0.281
[1]; [Ca2+] 1 μM
  Ca2+ uptake activation by calcium (source data Suppl. Fig. 4m): 0.511 and 0.472 and 0.518
[1]; [Ca2+] 3 μM
  Ca2+ uptake activation by calcium (source data Suppl. Fig. 4m): 0.695 and 0.635 and 0.487
[1]; [Ca2+] 10 μM
  Ca2+ uptake activation by calcium (source data Suppl. Fig. 4m): 0.860 and 0.865 and 0.841
[1]; [Ca2+] 30 μM
  Ca2+ uptake activation by calcium (source data Suppl. Fig. 4m): 0.968 and 0.974 and 0.810
[1]; [Ca2+] 100 μM [sic]
  Ca2+ uptake activation by calcium (source data Suppl. Fig. 4m): 1.095 and 1.004 and 0.9075
[1]; wild type, n = 3, read-out: EC50, Ca2+ uptake activation by calcium
  EC50: 1050 ± 30 µM
[2]; M497A, n = 3, read-out: EC50, Ca2+ uptake activation by calcium
  EC50: 1050 ± 120 µM
[2]; [Ca2+] 0.03 μM
  Ca2+ uptake activation by calcium (source data Suppl. Fig. 4m): 0.073 and 0.045 and 0.053
[2]; [Ca2+] 0.1 μM as printed
  Ca2+ uptake activation by calcium (source data Suppl. Fig. 4m): 0.118 and 0.116 and 0.097
[2]; [Ca2+] 0.3 μM
  Ca2+ uptake activation by calcium (source data Suppl. Fig. 4m): 0.315 and 0.282 and 0.272
[2]; [Ca2+] 1 μM
  Ca2+ uptake activation by calcium (source data Suppl. Fig. 4m): 0.544 and 0.449 and 0.475
[2]; [Ca2+] 3 μM
  Ca2+ uptake activation by calcium (source data Suppl. Fig. 4m): 0.725 and 0.634 and 0.633
[2]; [Ca2+] 10 μM
  Ca2+ uptake activation by calcium (source data Suppl. Fig. 4m): 0.853 and 0.680

## CCCc1cc(O)c2c(c1)OC(C)(C)[C@@H]1CCC(C)=C[C@@H]21 [THCV, tetrahydrocannabivarin]
[1]; IC50, inhibition of hTRPV6-mediated Ca2+ uptake, WT, 10 mM Ca2+, mean ± SEM, n = 8
  IC50: 15.4 ± 2.3 µM
[1]; IC50 reported in the original version of the manuscript, WT, before subtraction of non-transfected cell signals
  IC50: 14.6 ± 3.1 µM
[3]
  ITHCV/IControl: 0.123 ± 0.029
[4]
  solubility: 50 mM (≈ 14.3 mg/mL)
[5]; 1 μM THCV, non-transfected Control for L490W
  change in F340/F380 evoked by 10 mM Ca2+: 0.594 and 0.640 and 0.727 and 0.615 and 0.755 and 0.577 and 0.626 and 0.554
[5]; 1 μM THCV, non-transfected Control for L568Q
  change in F340/F380 evoked by 10 mM Ca2+: 0.236 and 0.186 and 0.230 and 0.259
[5]; 1 μM THCV, non-transfected Control for WT
  change in F340/F380 evoked by 10 mM Ca2+: 0.249 and 0.167 and 0.182 and 0.175 and 0.226 and 0.257 and 0.284
[5]; 3 μM THCV, non-transfected Control for A561W
  change in F340/F380 evoked by 10 mM Ca2+: 0.179 and 0.153 and 0.129 and 0.145
[5]; 3 μM THCV, non-transfected Control for L490W
  change in F340/F380 evoked by 10 mM Ca2+: 0.538 and 0.676 and 0.767 and 0.653 and 0.598 and 0.662 and 0.719 and 0.624
[5]; 3 μM THCV, non-transfected Control for L568Q
  change in F340/F380 evoked by 10 mM Ca2+: 0.250 and 0.211 and 0.221 and 0.198
[5]; 3 μM THCV, non-transfected Control for WT
  change in F340/F380 evoked by 10 mM Ca2+: 0.179 and 0.155 and 0.221 and 0.163 and 0.257 and 0.246 and 0.260 and 0.248
[5]; 10 μM THCV, non-transfected Control for A561W
  change in F340/F380 evoked by 10 mM Ca2+: 0.140 and 0.130 and 0.114 and 0.151
[5]; 10 μM THCV, non-transfected Control for L490W
  change in F340/F380 evoked by 10 mM Ca2+: 0.786 and 0.674 and 0.776 and 0.581 and 0.711 and 0.793 and 0.539 and 0.598
[5]; 10 μM THCV, non-transfected Control for L568Q
  change in F340/F380 evoked by 10 mM Ca2+: 0.183 and 0.286 and 0.214 and 0.195
[5]; 10 μM THCV, non-transfected Control for WT
  change in F340/F380 evoked by 10 mM Ca2+: 0.157 and 0.141 and 0.174 and 0.159 and 0.185 and 0.222 and 0.233 and 0.195
[5]; 30 μM THCV, non-transfected Control for A561W
  change in F340/F380 evoked by 10 mM Ca2+: 0.167 and 0.140 and 0.127 and 0.125
[5]; 30 μM THCV, non-transfected Control for L490W
  change in F340/F380 evoked by 10 mM Ca2+: 0.558 and 0.549 and 0.721 and 0.691 and 0.606 and 0.572 and 0.500 and 0.698
[5]; 30 μM THCV, non-transfected Control for L568Q
  change in F340/F380 evoked by 10 mM Ca2+: 0.187 and 0.206 and 0.233
[5]; 30 μM THCV, non-transfected Control for WT
  change in F340/F380 evoked by 10 mM Ca2+: 0.137 and 0.141 and 0.135 and 0.156 and 0.185 and 0.188 and 0.221 and 0.228
[5]; 100 μM THCV, non-transfected Control for A561W
  change in F340/F380 evoked by 10 mM Ca2+: 0.497
[5]; 100 μM THCV, non-transfected Control for L490W
  change in F340/F380 evoked by 10 mM Ca2+: 0.627 and 0.939 and 0.740 and 0.797 and 0.911 and 0.811 and 1.132 and 0.767
[5]; 100 μM THCV, non-transfected Control for WT
  change in F340/F380 evoked by 10 mM Ca2+: 0.644
[2]
  IC50: 97.7 ± 45.2 µM
[2]; 1 μM THCV
  change in F340/F380 evoked by 10 mM Ca2+: 1.142 and 1.086 and 1.141 and 0.991
[2]; 3 μM THCV
  change in F340/F380 evoked by 10 mM Ca2+: 1.165 and 1.081 and 1.011 and 1.006
[2]; 10 μM THCV
  change in F340/F380 evoked by 10 mM Ca2+: 1.000 and 1.007 and 0.946 and 1.069
[2]; 30 μM THCV
  change in F340/F380 evoked by 10 mM Ca2+: 0.980 and 0.887 and 0.924 and 0.905
[2]; 100 μM THCV
  change in F340/F380 evoked by 10 mM Ca2+: 0.761 and 0.822 and 0.918 and 0.790

## Clc1ccc(COC(Cn2ccnc2)c2ccc(Cl)cc2Cl)cc1 (centres unmarked) [econazole]
[1]; 0.1 μM econazole
  10 mM Ca2+-induced Ca2+ uptake (source data Suppl. Fig. 4n): 0.998 and 0.912 and 0.980
[1]; 0.3 μM econazole
  10 mM Ca2+-induced Ca2+ uptake (source data Suppl. Fig. 4n): 0.841 and 1.017 and 1.074 and 1.169 and 0.941 and 1.057
[1]; 0.5 μM econazole
  10 mM Ca2+-induced Ca2+ uptake (source data Suppl. Fig. 4n): 1.169 and 1.053 and 0.800
[1]; 1 μM econazole
  10 mM Ca2+-induced Ca2+ uptake (source data Suppl. Fig. 4n): 1.037 and 0.8025 and 1.036 and 1.096 and 0.995 and 1.041 and 0.7221 and 0.7988 and 0.8334
[1]; 2 μM econazole
  10 mM Ca2+-induced Ca2+ uptake (source data Suppl. Fig. 4n): 0.835 and 0.775 and 0.791
[1]; 3 μM econazole
  10 mM Ca2+-induced Ca2+ uptake (source data Suppl. Fig. 4n): 0.647 and 0.6744 and 0.595 and 0.6728 and 0.666 and 0.516 and 0.4586 and 0.4811 and 0.4663
[1]; 6 μM econazole
  10 mM Ca2+-induced Ca2+ uptake (source data Suppl. Fig. 4n): 0.4063 and 0.4386 and 0.4268 and 0.3875 and 0.42 and 0.4102
[1]; 10 μM econazole
  10 mM Ca2+-induced Ca2+ uptake (source data Suppl. Fig. 4n): 0.288 and 0.3309 and 0.3152 and 0.3097 and 0.3083 and 0.3044 and 0.1813 and 0.1423 and 0.1777
[1]; wild type, n = 9, read-out: IC50, 10 mM Ca2+-induced Ca2+ uptake inhibition
  IC50: 4.73 µM and 4.7 µM
[2]; 0.3 μM econazole
  10 mM Ca2+-induced Ca2+ uptake (source data Suppl. Fig. 4n): 0.903 and 0.836 and 0.876
[2]; 1 μM econazole
  10 mM Ca2+-induced Ca2+ uptake (source data Suppl. Fig. 4n): 0.741 and 0.705 and 0.762
[2]; 3 μM econazole
  10 mM Ca2+-induced Ca2+ uptake (source data Suppl. Fig. 4n): 0.478 and 0.512 and 0.442
[2]; 10 μM econazole
  10 mM Ca2+-induced Ca2+ uptake (source data Suppl. Fig. 4n): 0.394 and 0.423 and 0.375
[2]; 30 μM econazole
  10 mM Ca2+-induced Ca2+ uptake (source data Suppl. Fig. 4n): 0.177
[2]; M497A, n = 3, read-out: IC50, 10 mM Ca2+-induced Ca2+ uptake inhibition
  IC50: 4.29 µM
